Reference: US12258328B2, “6-membered heteroaryl-containing aminopyridine compounds as EGFR inhibitors” (YUHAN CORPORATION, priority 2021, dated 2025)

How the values were obtained:
EGFR del19/T790M/C797S = EGFR del19/T790M/C797S (Homo sapiens, UniProt P00533, C797S/DEL746-750/T790M); experiment: Biochemical EGFR kinase assay (Lance Ultra TR-FRET), triple mutant del19/T790M/C797S; conditions: Km ATP; read-out: IC50 del19/T790M/C797S (nM) Km ATP
Summary of the method: (§1)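 Kinase activity is measured by TR-FRET phosphopeptide detection. Compounds span 0.003 μM to 10 μM; the 1 h reaction at room temperature is quenched with EDTA, then labelled antibody (2 nM) is incubated 60 min before reading.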

EGFR del19/C797S = EGFR del19/C797S (Homo sapiens, UniProt P00533, C797S/DEL746-750); experiment: Biochemical EGFR kinase assay (Lance Ultra TR-FRET), double mutant del19/C797S; conditions: Km ATP; read-out: IC50 del19/C797S (nM) Km ATP
Summary of the method: as §1

EGFR L858R/C797S = EGFR L858R/C797S (Homo sapiens, UniProt P00533, C797S/L858R); experiment: Biochemical EGFR kinase assay (Lance Ultra TR-FRET), double mutant L858R/C797S; conditions: Km ATP; read-out: IC50 L858R/C797S (nM) Km ATP
Summary of the method: as §1

EGFR wildtype = EGFR wildtype (Homo sapiens, UniProt P00533); experiment: Biochemical EGFR kinase assay (Lance Ultra TR-FRET), wildtype; conditions: Km ATP; read-out: IC50 WT (nM) Km ATP
Summary of the method: as §1

EGFR L858R/T790M/C797S = EGFR L858R/T790M/C797S (Homo sapiens, UniProt P00533, C797S/L858R/T790M); experiment: Biochemical EGFR kinase assay (Lance Ultra TR-FRET), triple mutant L858R/T790M/C797S; conditions: Km ATP; read-out: IC50 L858R/T790M/C797S (nM) Km ATP
Summary of the method: as §1

EGFR wildtype, sequence (P00533 25-1210): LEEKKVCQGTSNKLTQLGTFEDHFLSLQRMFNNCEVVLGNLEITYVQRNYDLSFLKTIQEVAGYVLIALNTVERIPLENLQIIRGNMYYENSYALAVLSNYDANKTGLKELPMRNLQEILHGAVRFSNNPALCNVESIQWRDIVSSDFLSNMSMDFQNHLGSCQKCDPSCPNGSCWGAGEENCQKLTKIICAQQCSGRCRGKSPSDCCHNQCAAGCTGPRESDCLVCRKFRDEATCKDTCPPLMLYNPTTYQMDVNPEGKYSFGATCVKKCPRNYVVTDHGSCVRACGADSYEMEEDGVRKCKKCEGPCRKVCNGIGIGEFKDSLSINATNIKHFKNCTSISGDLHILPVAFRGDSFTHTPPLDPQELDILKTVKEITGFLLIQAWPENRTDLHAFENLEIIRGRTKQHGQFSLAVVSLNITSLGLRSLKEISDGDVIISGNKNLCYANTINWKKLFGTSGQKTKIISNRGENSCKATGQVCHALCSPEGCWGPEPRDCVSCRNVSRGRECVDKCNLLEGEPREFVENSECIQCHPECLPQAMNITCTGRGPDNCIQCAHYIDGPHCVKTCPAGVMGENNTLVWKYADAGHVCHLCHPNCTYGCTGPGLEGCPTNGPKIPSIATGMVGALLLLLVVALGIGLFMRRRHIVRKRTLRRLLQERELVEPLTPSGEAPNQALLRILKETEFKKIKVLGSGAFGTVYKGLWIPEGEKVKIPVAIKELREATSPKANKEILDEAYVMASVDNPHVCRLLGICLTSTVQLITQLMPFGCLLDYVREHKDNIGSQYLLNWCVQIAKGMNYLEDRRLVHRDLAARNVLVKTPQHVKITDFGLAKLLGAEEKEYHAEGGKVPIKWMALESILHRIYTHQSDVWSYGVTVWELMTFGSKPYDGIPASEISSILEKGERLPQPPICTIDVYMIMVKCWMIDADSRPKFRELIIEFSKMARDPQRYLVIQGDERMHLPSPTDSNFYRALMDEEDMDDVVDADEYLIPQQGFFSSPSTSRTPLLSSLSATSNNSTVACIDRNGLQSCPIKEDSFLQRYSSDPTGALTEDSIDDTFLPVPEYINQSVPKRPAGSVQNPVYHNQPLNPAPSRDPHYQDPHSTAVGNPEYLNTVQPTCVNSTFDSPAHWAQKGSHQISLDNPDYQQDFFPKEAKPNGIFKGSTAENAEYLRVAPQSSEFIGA
EGFR L858R/T790M/C797S, sequence (P00533 25-1210 T790M/C797S/L858R): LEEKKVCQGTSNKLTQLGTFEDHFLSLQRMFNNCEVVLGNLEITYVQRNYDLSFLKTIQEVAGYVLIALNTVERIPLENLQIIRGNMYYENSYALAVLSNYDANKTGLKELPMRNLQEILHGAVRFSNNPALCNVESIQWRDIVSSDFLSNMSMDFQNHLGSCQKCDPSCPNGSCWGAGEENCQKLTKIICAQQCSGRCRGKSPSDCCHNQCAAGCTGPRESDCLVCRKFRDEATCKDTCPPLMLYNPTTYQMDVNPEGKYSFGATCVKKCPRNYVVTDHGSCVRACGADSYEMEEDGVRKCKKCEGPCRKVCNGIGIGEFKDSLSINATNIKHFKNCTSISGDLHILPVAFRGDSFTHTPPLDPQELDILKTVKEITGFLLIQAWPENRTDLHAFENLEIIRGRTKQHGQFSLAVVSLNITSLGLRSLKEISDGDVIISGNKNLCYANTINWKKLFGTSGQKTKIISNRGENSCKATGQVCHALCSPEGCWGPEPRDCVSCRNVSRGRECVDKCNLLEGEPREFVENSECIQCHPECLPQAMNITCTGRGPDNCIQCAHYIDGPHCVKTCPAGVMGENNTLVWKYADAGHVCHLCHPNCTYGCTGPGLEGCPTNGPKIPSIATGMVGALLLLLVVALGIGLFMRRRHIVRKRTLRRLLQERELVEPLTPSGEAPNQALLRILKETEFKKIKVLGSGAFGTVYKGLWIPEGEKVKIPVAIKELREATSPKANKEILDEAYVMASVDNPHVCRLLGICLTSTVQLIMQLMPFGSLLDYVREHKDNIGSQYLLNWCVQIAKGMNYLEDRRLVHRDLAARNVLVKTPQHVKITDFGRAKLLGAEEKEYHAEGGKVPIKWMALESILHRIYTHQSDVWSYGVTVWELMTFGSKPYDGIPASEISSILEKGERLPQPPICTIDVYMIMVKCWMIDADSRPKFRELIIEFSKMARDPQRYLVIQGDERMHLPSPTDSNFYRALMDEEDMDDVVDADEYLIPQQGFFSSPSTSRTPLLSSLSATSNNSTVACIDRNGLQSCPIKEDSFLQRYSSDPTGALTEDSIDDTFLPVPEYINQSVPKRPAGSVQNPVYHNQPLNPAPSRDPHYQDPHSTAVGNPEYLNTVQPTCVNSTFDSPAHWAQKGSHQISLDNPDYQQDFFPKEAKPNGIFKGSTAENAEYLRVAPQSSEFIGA
EGFR del19/C797S, sequence (P00533 with tags, fused parts or gaps DEL746-750/C797S): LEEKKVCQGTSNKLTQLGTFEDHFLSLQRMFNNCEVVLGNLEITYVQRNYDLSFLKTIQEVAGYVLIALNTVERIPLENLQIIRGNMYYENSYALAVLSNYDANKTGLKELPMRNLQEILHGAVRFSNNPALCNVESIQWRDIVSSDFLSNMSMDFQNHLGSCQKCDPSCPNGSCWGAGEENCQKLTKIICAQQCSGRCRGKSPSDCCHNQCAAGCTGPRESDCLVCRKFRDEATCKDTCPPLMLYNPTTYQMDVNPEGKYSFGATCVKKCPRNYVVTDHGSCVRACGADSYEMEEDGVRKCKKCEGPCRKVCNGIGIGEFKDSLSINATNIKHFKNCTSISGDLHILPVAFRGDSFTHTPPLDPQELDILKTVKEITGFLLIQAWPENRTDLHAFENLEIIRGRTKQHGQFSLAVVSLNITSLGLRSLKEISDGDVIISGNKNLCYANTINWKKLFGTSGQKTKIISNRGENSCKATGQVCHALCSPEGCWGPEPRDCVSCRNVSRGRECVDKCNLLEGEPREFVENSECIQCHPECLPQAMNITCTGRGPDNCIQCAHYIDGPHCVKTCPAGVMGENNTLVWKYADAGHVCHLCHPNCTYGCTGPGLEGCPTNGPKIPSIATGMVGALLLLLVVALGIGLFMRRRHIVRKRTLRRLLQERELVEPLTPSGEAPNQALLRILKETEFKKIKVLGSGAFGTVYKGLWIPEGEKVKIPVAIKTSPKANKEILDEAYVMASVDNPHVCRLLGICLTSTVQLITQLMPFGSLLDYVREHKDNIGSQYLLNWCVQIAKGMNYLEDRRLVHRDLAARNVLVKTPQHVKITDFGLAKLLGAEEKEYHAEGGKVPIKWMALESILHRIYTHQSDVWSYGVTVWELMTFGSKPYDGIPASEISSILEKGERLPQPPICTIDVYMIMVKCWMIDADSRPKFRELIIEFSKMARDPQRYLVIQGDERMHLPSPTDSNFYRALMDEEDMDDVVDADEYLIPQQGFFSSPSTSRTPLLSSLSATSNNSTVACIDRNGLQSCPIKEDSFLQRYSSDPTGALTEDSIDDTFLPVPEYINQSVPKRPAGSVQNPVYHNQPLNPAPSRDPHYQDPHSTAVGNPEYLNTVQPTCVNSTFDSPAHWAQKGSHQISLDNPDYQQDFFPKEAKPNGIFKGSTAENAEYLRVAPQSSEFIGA
EGFR del19/T790M/C797S, sequence (P00533 with tags, fused parts or gaps DEL746-750/T790M/C797S): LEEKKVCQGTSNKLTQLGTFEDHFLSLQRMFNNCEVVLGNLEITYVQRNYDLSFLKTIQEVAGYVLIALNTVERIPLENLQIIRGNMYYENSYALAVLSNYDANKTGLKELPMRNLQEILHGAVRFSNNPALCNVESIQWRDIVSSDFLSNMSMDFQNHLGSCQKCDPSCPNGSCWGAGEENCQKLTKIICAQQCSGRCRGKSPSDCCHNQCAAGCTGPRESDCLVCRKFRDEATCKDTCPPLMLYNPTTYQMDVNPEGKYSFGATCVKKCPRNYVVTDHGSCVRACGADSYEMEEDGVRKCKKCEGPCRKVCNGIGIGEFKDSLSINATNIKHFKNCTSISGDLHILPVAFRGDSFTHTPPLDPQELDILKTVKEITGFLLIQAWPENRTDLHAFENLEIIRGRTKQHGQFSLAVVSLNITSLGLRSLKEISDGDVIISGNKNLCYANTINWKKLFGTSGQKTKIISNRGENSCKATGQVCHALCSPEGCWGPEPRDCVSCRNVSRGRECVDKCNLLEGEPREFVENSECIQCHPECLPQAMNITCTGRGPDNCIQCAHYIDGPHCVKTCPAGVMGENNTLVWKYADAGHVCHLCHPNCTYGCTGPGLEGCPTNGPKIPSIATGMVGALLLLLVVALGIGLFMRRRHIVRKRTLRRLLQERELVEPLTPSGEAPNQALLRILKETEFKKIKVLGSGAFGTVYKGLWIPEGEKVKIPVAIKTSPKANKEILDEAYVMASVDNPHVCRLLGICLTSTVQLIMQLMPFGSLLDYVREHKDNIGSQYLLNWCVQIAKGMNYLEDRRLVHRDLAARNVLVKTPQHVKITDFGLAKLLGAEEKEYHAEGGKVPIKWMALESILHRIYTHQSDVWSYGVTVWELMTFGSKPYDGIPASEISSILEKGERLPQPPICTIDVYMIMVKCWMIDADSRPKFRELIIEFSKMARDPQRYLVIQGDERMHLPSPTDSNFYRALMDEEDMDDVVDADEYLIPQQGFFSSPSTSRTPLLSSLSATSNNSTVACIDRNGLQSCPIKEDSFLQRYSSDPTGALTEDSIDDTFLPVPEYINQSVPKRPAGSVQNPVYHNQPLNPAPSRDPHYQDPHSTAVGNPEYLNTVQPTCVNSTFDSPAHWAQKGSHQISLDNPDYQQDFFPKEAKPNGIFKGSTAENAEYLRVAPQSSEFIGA

SMILES | IC50 (EGFR del19/T790M/C797S) | IC50 (EGFR del19/C797S) | IC50 (EGFR L858R/C797S) | IC50 (EGFR wildtype) | IC50 (EGFR L858R/T790M/C797S)
CC(C)Nc1cc(Nc2ccnc(-c3cnn(S(=O)(=O)C4CC4)c3)n2)ncc1-c1ccc(CN2CCOCC2)cn1 [Example 125, N^6′-(2-(1-(Cyclopropylsulfonyl)-1H-pyrazol-4-yl)pyrimidin-4-yl)-N^4′-isopropyl-5-(morpholinomethyl)-[2,3′-bipyridine]-4′,6′-diamine] | 0.7 nM | 8.9 nM | 12.1 nM | 44.8 nM | 0.3 nM
O=S(=O)(C1CC1)n1cc(-c2nccc(Nc3cc(N[C@H]4CC[C@@H](F)CC4)c(-c4ccc(CN5CCOCC5)cn4)cn3)n2)cn1 [Example 126, N^6′-(2-(1-(Cyclopropylsulfonyl)-1H-pyrazol-4-yl)pyrimidin-4-yl)-N^4′-((1s,4s)-4-fluorocyclohexyl)-5-(morpholinomethyl)-[2,3′-bipyridine]-4′,6′-diamine] | 2.7 nM | 12.1 nM | 12.6 nM | 45.7 nM | 1.2 nM
CC(C)Nc1cc(Nc2ccnc(-c3cnn(S(=O)(=O)C4CC4)c3)n2)ncc1-c1cnc(OC(F)F)cn1 [Example 127, N^2-(2-(1-(Cyclopropylsulfonyl)-1H-pyrazol-4-yl)pyrimidin-4-yl)-5-(5-(difluoromethoxy)pyrazin-2-yl)-N^4-isopropylpyridine-2,4-diamine] | 17.5 nM | > 10000 nM | > 10000 nM | > 10000 nM | 6.6 nM
O=S(=O)(C1CC1)n1cc(-c2nccc(Nc3cc(N[C@H]4CC[C@@H](CO)CC4)c(-c4cnc(OC(F)F)cn4)cn3)n2)cn1 [Example 129, ((1s,4s)-4-((2-((2-(1-(Cyclopropylsulfonyl)-1H-pyrazol-4-yl)pyrimidin-4-yl)amino)-5-(5-(difluoromethoxy)pyrazin-2-yl)pyridin-4-yl)amino)cyclohexyl)methanol] | 1.4 nM | 12.6 nM | 12.9 nM | 116 nM | 0.5 nM
CC(C)(O)[C@H]1CC[C@@H](Nc2cc(Nc3ccnc(-c4cnn(S(=O)(=O)C5CC5)c4)n3)ncc2-c2cnc(OC(F)F)cn2)CC1 [Example 130, 2-((1s,4s)-4-((2-((2-(1-(Cyclopropylsulfonyl)-1H-pyrazol-4-yl)pyrimidin-4-yl)amino)-5-(5-(difluoromethoxy)pyrazin-2-yl)pyridin-4-yl)amino)cyclohexyl)propan-2-ol] | 3.9 nM | 281 nM | 239 nM | > 10000 nM | 1.7 nM
C[C@]1(O)CC[C@@H](Nc2cc(Nc3ccnc(-c4cnn(S(=O)(=O)C5CC5)c4)n3)ncc2-c2cnc(C(F)(F)F)cn2)CC1 [Example 134, (1s,4s)-4-((2-((2-(1-(Cyclopropylsulfonyl)-1H-pyrazol-4-yl)pyrimidin-4-yl)amino)-5-(5-(trifluoromethyl)pyrazin-2-yl)pyridin-4-yl)amino)-1-methylcyclohexan-1-ol] | 0.9 nM | 32.1 nM | 15.6 nM | 34.2 nM | 0.6 nM
FC(F)Cn1cc(-c2nccc(Nc3cc(N[C@H]4CC[C@@H](F)CC4)c(-c4ccc(N5CCOCC5)cn4)cn3)n2)cn1 [Example 137, N^6′-(2-(1-(2,2-Difluoroethyl)-1H-pyrazol-4-yl)pyrimidin-4-yl)-N^4′-((1s,4s)-4-fluorocyclohexyl)-5-morpholino-[2,3′-bipyridine]-4′,6′-diamine] | 1.1 nM | 74.4 nM | 6.4 nM | 272 nM | 0.2 nM

These reach a lower IC50 (EGFR del19/T790M/C797S). Values come first.

IC50 (EGFR del19/T790M/C797S) | IC50 (EGFR del19/C797S) | IC50 (EGFR L858R/C797S) | IC50 (EGFR wildtype) | IC50 (EGFR L858R/T790M/C797S) | SMILES
0.5 nM | 1.7 nM | 1.4 nM | 9.3 nM | 0.3 nM | CN1CCC(Oc2ccc(-c3cnc(Nc4ccnc(-c5cnn(CC(F)F)c5)n4)cc3N[C@H]3CC[C@@H](F)CC3)nc2)CC1 [Example 133, N^6′-(2-(1-(2,2-Difluoroethyl)-1H-pyrazol-4-yl)pyrimidin-4-yl)-N^4′-((1s,4s)-4-fluorocyclohexyl)-5-((1-methylpiperidin-4-yl)oxy)-[2,3′-bipyridine]-4′,6′-diamine]
0.5 nM | 19.1 nM | 6.4 nM | 69.8 nM | 0.2 nM | FC(F)Cn1cc(-c2nccc(Nc3cc(N[C@H]4CC[C@@H](F)CC4)c(-c4ccc(CN5CCOCC5)cn4)cn3)n2)cn1 [Example 136, N^6′-(2-(1-(2,2-difluoroethyl)-1H-pyrazol-4-yl)pyrimidin-4-yl)-N^4′-((1s,4s)-4-fluorocyclohexyl)-5-(morpholinomethyl)-[2,3′-bipyridine]-4′,6′-diamine]
0.4 nM | 0.4 nM | 0.3 nM | 0.8 nM | 0.4 nM | CN1CCC(Oc2ccc(-c3cnc(Nc4ccnc(-c5cnn(S(=O)(=O)C6CC6)c5)n4)cc3N[C@H]3CC[C@@H](F)CC3)nc2)CC1 [Example 132, N^6′-(2-(1-(Cyclopropylsulfonyl)-1H-pyrazol-4-yl)pyrimidin-4-yl)-N^4′-((1s,4s)-4-fluorocyclohexyl)-5-((1-methylpiperidin-4-yl)oxy)-[2,3′-bipyridine]-4′,6′-diamine]
0.3 nM | 19.4 nM | 5 nM | 208 nM | 0.3 nM | CN1CCC(Oc2ccc(-c3cnc(Nc4ccnc(-c5cnn(CC(F)F)c5)n4)cc3NC3CC(F)(F)C3)nc2)CC1 [Example 139, N^4′-(3,3-Difluorocyclobutyl)-N^6′-(2-(1-(2,2-difluoroethyl)-1H-pyrazol-4-yl)pyrimidin-4-yl)-5-((1-methylpiperidin-4-yl)oxy)-[2,3′-bipyridine]-4′,6′-diamine]
0.3 nM | 2.2 nM | 1.2 nM | 26.3 nM | 0.1 nM | CN1CCC(Oc2cnc(-c3cnc(Nc4ccnc(-c5cnn(S(=O)(=O)C6CC6)c5)n4)cc3N[C@H]3CC[C@@H](F)CC3)cn2)CC1 [Example 144, N^2-(2-(1-(Cyclopropylsulfonyl)-1H-pyrazol-4-yl)pyrimidin-4-yl)-N^4-((1s,4s)-4-fluorocyclohexyl)-5-(5-((1-methylpiperidin-4-yl)oxy)pyrazin-2-yl)pyridine-2,4-diamine]
0.2 nM | 2.1 nM | 2.2 nM | 8.1 nM | 0.1 nM | CN(C)C[C@H]1CC[C@@H](Nc2cc(Nc3ccnc(-c4cnn(S(=O)(=O)C5CC5)c4)n3)ncc2-c2cnc(OC(F)F)cn2)CC1 [Example 131, N^2-(2-(1-(Cyclopropylsulfonyl)-1H-pyrazol-4-yl)pyrimidin-4-yl)-5-(5-(difluoromethoxy)pyrazin-2-yl)-N^4-((1s,4s)-4-((dimethylamino)methyl)cyclohexyl)pyridine-2,4-diamine]
0.2 nM | 8.3 nM | 15.1 nM | 67.6 nM | 0.2 nM | CN1CCC(Oc2ccc(-c3cnc(Nc4ccnc(-c5cnn(S(=O)(=O)C6CC6)c5)n4)cc3NC3CC(F)(F)C3)nc2)CC1 [Example 140, N^6′-(2-(1-(Cyclopropylsulfonyl)-1H-pyrazol-4-yl)pyrimidin-4-yl)-N^4′-(3,3-difluorocyclobutyl)-5-((1-methylpiperidin-4-yl)oxy)-[2,3′-bipyridine]-4′,6′-diamine]
0.1 nM | 4.9 nM | 1.6 nM | 32 nM | 0.2 nM | CN1CCC(Oc2ccc(-c3cnc(Nc4ccnc(-c5cnn(CC(F)F)c5)n4)cc3NC3CCC(F)(F)C3)nc2)CC1 (stereo not drawn) [Example 138, N^4′-(3,3-Difluorocyclopentyl)-N^6′-(2-(1-(2,2-difluoroethyl)-1H-pyrazol-4-yl)pyrimidin-4-yl)-5-((1-methylpiperidin-4-yl)oxy)-[2,3′-bipyridine]-4′,6′-diamine]
0.1 nM | 1 nM | 1.1 nM | 7.9 nM | 0.2 nM | CN1CCC(Oc2ccc(-c3cnc(Nc4ccnc(-c5cnn(S(=O)(=O)C6CC6)c5)n4)cc3NC3CCC(F)(F)C3)nc2)CC1 (stereo not drawn) [Example 143, N^6′-(2-(1-(Cyclopropylsulfonyl)-1H-pyrazol-4-yl)pyrimidin-4-yl)-N^4′-(3,3-difluorocyclopentyl)-5-((1-methylpiperidin-4-yl)oxy)-[2,3′-bipyridine]-4′,6′-diamine]
0.03 nM | 1.2 nM | 0.8 nM | 12.4 nM | 0.1 nM | CN1CCC(Oc2ccc(-c3cnc(Nc4ccnc(-c5cnn(CC(F)F)c5)n4)cc3NC3CCCC(F)C3)nc2)CC1 (stereo not drawn) [Example 141, N^6′-(2-(1-(2,2-Difluoroethyl)-1H-pyrazol-4-yl)pyrimidin-4-yl)-N^4′-(3-fluorocyclohexyl)-5-((1-methylpiperidin-4-yl)oxy)-[2,3′-bipyridine]-4′,6′-diamine]
0.01 nM | 2 nM | 0.8 nM | 17.1 nM | 0.03 nM | CN1CCC(Oc2ccc(-c3cnc(Nc4ccnc(-c5cnc6c(c5)CCCO6)n4)cc3N[C@H]3CC[C@@](C)(O)CC3)nc2)CC1 [Example 142, (1s,4s)-4-((6′-((2-(3,4-Dihydro-2H-pyrano[2,3-b]pyridin-6-yl)pyrimidin-4-yl)amino)-5-((1-methylpiperidin-4-yl)oxy)-[2,3′-bipyridin]-4′-yl)amino)-1-methylcyclohexan-1-ol]
